Measured values taken from patent publication US20170150719A1, “FUNGICIDAL PYRAZOLES AND THEIR MIXTURES” (E I DU PONT DE NEMOURS AND COMPANY, priority 2010, published 2017).

What was measured:
Septoria tritici = assay: Test F: wheat leaf blotch, preventive spray on wheat seedlings, visual disease rating; assay type: in vivo; conditions: 100 = 100% disease control, 0 = no disease control relative to the controls
Source text: (§1) A hyphen (-) indicates no test results.

[1] = test system: Puccinia recondita f. sp. tritici; assay: Test G: wheat leaf rust, spray after inoculation (curative) on wheat seedlings, visual disease rating; assay type: in vivo; conditions: sprayed after inoculation, 100 = 100% disease control, 0 = no disease control
Source text: as §1

[2] = test system: Puccinia recondita f. sp. tritici; assay: Test H: wheat leaf rust, preventive spray on wheat seedlings, visual disease rating; conditions: wheat leaf rust, sprayed the day before inoculation; 100 = 100% disease control, 0 = no disease control
Botrytis cinerea = assay: Test A: tomato Botrytis, preventive spray on tomato seedlings, visual disease rating; conditions: tomato Botrytis; 100 = 100% disease control, 0 = no disease control relative to the controls
Alternaria solani = assay: Test B: tomato early blight, preventive spray on tomato seedlings, visual disease rating; conditions: tomato early blight; 100 = 100% disease control, 0 = no disease control relative to the controls
[3] = test system: Blumeria graminis f. sp. tritici; assay: Test I: wheat powdery mildew, preventive spray on wheat seedlings, visual disease rating; conditions: wheat powdery mildew; 100 = 100% disease control, 0 = no disease control relative to the controls
Method: General protocol for preparing test suspensions for Tests A-I: the test compounds were first dissolved in acetone in an amount equal to 3% of the final volume and then suspended at the desired concentration (in ppm) in acetone and purified water (50/50 mix by volume) containing 250 ppm of the surfactant Trem® 014 (polyhydric alcohol esters). The resulting test suspensions were then used in Tests A-I. Each test was conducted in triplicate, and the results were averaged. Spraying a 200 ppm test suspension to the point of run-off on the test plants was the equivalent of a rate of about 800 g/ha. Unless otherwise indicated, the rating values indicate a 200 ppm test suspension was used. (An asterisk “*” next to the rating value indicates a 40 ppm test suspension was used.)
The test suspension was sprayed to the point of run-off on wheat seedlings. The following day the seedlings were inoculated with a spore dust of Blumeria graminis f. sp. tritici (also known as Erysiphe graminis f. sp. tritici, the causal agent of wheat powdery mildew) and incubated in a growth chamber at 20° C. for 8 days, after which time visual disease ratings were made.

Septoria nodorum = assay: Test E: Septoria glume blotch, preventive spray on wheat seedlings, visual disease rating; conditions: Septoria glume blotch; 100 = 100% disease control, 0 = no disease control relative to the controls

SMILES	Test F rating (disease control) (Septoria tritici) [%]	Test G rating (disease control) [1] [%]	Test H rating (disease control) [2] [%]	Test A rating (disease control) (Botrytis cinerea) [%]	Test B rating (disease control) (Alternaria solani) [%]	Test I rating (disease control) [3] [%]	Test E rating (disease control) (Septoria nodorum) [%]
COc1ccc(-c2c(C)nn(C)c2Oc2c(F)cc(C#N)cc2F)c(Cl)c1 [compound 41]	100	92	100	100	99	99	100
COc1ccc(-c2c(C)nn(C)c2Nc2ccc(F)cc2F)c(Cl)c1 [compound 42]	99	8	100	98	99	100	0
COc1ccc(-c2c(C)nn(C)c2Nc2c(F)cccc2F)c(Cl)c1 [compound 43]	100	95	100	98	100	98	0
Cc1nn(C)c(Nc2ccc(C#N)cc2Cl)c1-c1ccc(F)cc1Cl [compound 44]	99	8	98	99	0	94	0
Cc1nn(C)c(Nc2ccc(F)cc2F)c1-c1c(F)cccc1F [compound 49]	98	0	83	100	100	100	80
Cc1nn(C)c(Nc2ccc(Cl)cc2Cl)c1-c1c(F)cccc1F [compound 50]	95	0	93	100	99	100	73
COc1ccc(Nc2c(-c3c(F)cccc3F)c(C)nn2C)c(F)c1 [compound 51]	98	0	68	100	99	100	0
Cc1nn(C)c(Nc2ccc(F)cc2F)c1-c1ccccc1F [compound 52]	100	0	60	94	44	98	0
Cc1nn(C)c(Nc2c(F)cc(F)cc2F)c1-c1ccccc1F [compound 53]	100	0	95	97	99	99	87
COc1cc(F)c(Nc2c(-c3ccccc3F)c(C)nn2C)c(F)c1 [compound 54]	99	27	94	97	100	99	67
COc1cc(F)c(Nc2c(-c3c(F)cccc3Cl)c(C)nn2C)c(F)c1 [compound 55]	100	94	100	99	99	99	80
Cc1nn(C)c(Nc2c(F)cc(F)cc2F)c1-c1c(F)cccc1Cl [compound 56]	100	0	97	98	100	99	0
Cc1nn(C)c(Nc2c(F)cc(C#N)cc2F)c1-c1c(F)cccc1Cl [compound 57]	100	0	99	97	100	99	73
COc1ccc(Nc2c(-c3c(F)cccc3F)c(C)nn2C)c(Cl)c1 [compound 60]	100	18	97	99	97	99	20
Cc1nn(C)c(Nc2ccc(F)cc2Cl)c1-c1ccc(F)cc1F [compound 61]	100	0	99	100	93	100	64
COc1cc(F)c(-c2c(C)nn(C)c2C(O)c2ccc(F)cc2F)c(F)c1 (centres unmarked) [compound 62]	100	0	99	100	100	99	99
COc1ccc(Nc2c(-c3ccc(F)cc3F)c(C)nn2C)c(F)c1 [compound 63]	99	0	80	99	99	99	0
Cc1nn(C)c(Nc2ccc(F)cc2F)c1-c1ccc(F)cc1F [compound 64]	100	0	97	99	99	100	0
COc1ccc(Nc2c(-c3ccc(F)cc3F)c(C)nn2C)c(Cl)c1 [compound 66]	100	0	91	99	37	100	0
Cc1nn(C)c(Nc2ccc(Cl)cc2Cl)c1-c1ccc(F)cc1F [compound 67]	100	0	97	100	64	100	0
